The values below come from patent publication US9365522B2, “Pyrazole amide derivative” (AMGEN INC., priority 2015, dated 2016).

This experiment concerns the target T1, ligand binding domain of human ROR gamma (Homo sapiens, UniProt P51449).
T1 construct: NM_001001523; expressed in transfected cells; host or cells: HEK293T
T1 sequence (P51449 247-497 isoform P51449-2): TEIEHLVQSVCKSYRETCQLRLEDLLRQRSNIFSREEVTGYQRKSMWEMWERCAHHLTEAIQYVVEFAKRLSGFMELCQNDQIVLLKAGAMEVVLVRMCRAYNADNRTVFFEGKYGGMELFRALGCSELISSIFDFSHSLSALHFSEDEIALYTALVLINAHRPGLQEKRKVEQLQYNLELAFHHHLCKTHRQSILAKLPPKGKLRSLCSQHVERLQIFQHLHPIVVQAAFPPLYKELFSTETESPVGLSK
Put plainly: ROR gamma reporter gene assay (GAL4-RORγ LBD luciferase, Dual-Glo). The format is cell-based. The following applies: HEK293T cells transfected with pM-ROR gamma, 8 concentrations 3.5 nM to 10.5 μM, 24 h incubation; read-out: result (pIC50, inhibition of RORγ transcriptional activity) (converted). Put shortly:
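HEK293T cells were co-transfected with GAL4 DBD fused to human RORγ LBD (aa 247-497), a 5×UAS firefly luciferase reporter and CMV-driven renilla luciferase, in medium with 10% charcoal-stripped FBS.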
(In general: A reporter such as luciferase makes a cellular process visible.)

Each structure is given as a SMILES string.

As to `COc1cccc(Cl)c1[C@H](O)CN(C(=O)c1cnn([C@H]2CC[C@](C)(C(=O)O)CC2)c1C(F)(F)F)[C@H]1C[C@@H]2[C@H](C1)C2(C)C` [Example 342, trans-4-(4-((2-(2-chloro-6-methoxyphenyl)-2-hydroxyethyl)((1R,3r,5S)-6,6-dimethylbicyclo[3.1.0]hexan-3-yl)carbamoyl)-5-(trifluoromethyl)-1H-pyrazol-1-yl)-1-methylcyclohexanecarboxylic acid], the IC50 was 45700 pM.
For `CC1(C)[C@@H]2C[C@H](N(CCc3c[nH]c4cccc(Cl)c34)C(=O)c3cnn([C@H]4CC[C@](C)(C(=O)O)CC4)c3C(F)(F)F)C[C@@H]21` [Example 343, trans-4-(4-((2-(4-chloro-1H-indol-3-yl)ethyl)((1R,3r,5S)-6,6-dimethylbicyclo[3.1.0]hexan-3-yl)carbamoyl)-5-(trifluoromethyl)-1H-pyrazol-1-yl)-1-methylcyclohex anecarboxylic acid] the value was 31600 pM; for `CC(C)(C)OC1CC(CN(CC(=O)c2c(Cl)cncc2Cl)C(=O)c2cnn([C@H]3CC[C@](C)(C(=O)O)CC3)c2C(F)(F)F)C1` (stereo partly drawn) [Example 344, trans-4-(4-((2-(3,5-dichloropyridin-4-yl)-2-oxoethyl)-((3-((2-methylpropan-2-yl)oxy)cyclobutyl)methyl)carbamoyl)-5-(trifluoromethyl)pyrazol-1-yl)-1-methylcyclohexane-1-carboxylic acid], 1.58e+06 pM.
Then `CC1(C)CCC(N(CC(=O)c2c(Cl)cc(F)cc2Cl)C(=O)c2cnn([C@H]3CC[C@](C)(C(=O)O)CC3)c2Cl)CC1` [Example 345, trans-4-(5-chloro-4-((2-(2,6-dichloro-4-fluorophenyl)-2-oxoethyl)-(4,4-dimethylcyclohexyl)carbamoyl)pyrazol-1-yl)-1-methylcyclohexane-1-carboxylic acid], with 26300 pM; and `CC(C)[C@H]1C[C@@H]1N(CC(=O)c1c(Cl)cncc1Cl)C(=O)c1cnn([C@H]2CC[C@](C)(C(=O)O)CC2)c1C(F)(F)F` [Example 346, trans-4-(4-((2-(3,5-dichloropyridin-4-yl)-2-oxoethyl)-((1S,2R)-2-propan-2-ylcyclopropyl)carbamoyl)-5-(trifluoromethyl)pyrazol-1-yl)-1-methylcyclohexane-1-carboxylic acid], with 110000 pM; and `CC(C)c1c(C(=O)N(CC(=O)c2c(Cl)cc(F)cc2Cl)C2CCC(C)(C)CC2)cnn1[C@H]1CC[C@](C)(C(=O)O)CC1` [Example 347, trans-4-(4-((2-(2,6-dichloro-4-fluorophenyl)-2-oxoethyl)-(4,4-dimethylcyclohexyl)carbamoyl)-5-propan-2-ylpyrazol-1-yl)-1-methylcyclohexane-1-carboxylic acid], with 871000 pM.
For `CC(C)(C)SCCN(CC(=O)c1c(Cl)cc(F)cc1Cl)C(=O)c1cnn([C@H]2CC[C@](C)(C(=O)O)CC2)c1C(F)(F)F` [Example 348, trans-4-(4-(2-tert-butylsulfanylethyl-(2-(2,6-dichloro-4-fluorophenyl)-2-oxoethyl)carbamoyl)-5-(trifluoromethyl)pyrazol-1-yl)-1-methylcyclohexane-1-carboxylic acid] the value was 155000 pM.
Take `CC1(C)CCC(N(CCc2c[nH]c3cccc(Cl)c23)C(=O)c2cnn([C@H]3CC[C@](C)(C(=O)O)CC3)c2C(F)(F)F)CC1` [Example 349, trans-4-(4-(2-(4-chloro-1H-indol-3-yl)ethyl-(4,4-dimethylcyclohexyl)carbamoyl)-5-(trifluoromethyl)pyrazol-1-yl)-1-methylcyclohexane-1-carboxylic acid]: the IC50 is 79400 pM.
Consider `CC(C)(C)S(=O)(=O)CCN(CC(=O)c1c(Cl)cc(F)cc1Cl)C(=O)c1cnn([C@H]2CC[C@](C)(C(=O)O)CC2)c1C(F)(F)F` [Example 350, trans-4-(4-(2-tert-butylsulfonylethyl-(2-(2,6-dichloro-4-fluorophenyl)-2-oxoethyl)carbamoyl)-5-(trifluoromethyl)pyrazol-1-yl)-1-methylcyclohexane-1-carboxylic acid], for which the IC50 was 1.15e+06 pM.
For the compound `CC(C)(C)[S+]([O-])CCN(CC(=O)c1c(Cl)cc(F)cc1Cl)C(=O)c1cnn([C@H]2CC[C@](C)(C(=O)O)CC2)c1C(F)(F)F` (stereo partly drawn) [Example 351, trans-4-(4-(2-tert-butylsulfinylethyl-(2-(2,6-dichloro-4-fluorophenyl)-2-oxoethyl)carbamoyl)-5-(trifluoromethyl)pyrazol-1-yl)-1-methylcyclohexane-1-carboxylic acid], the IC50 is 7.24e+06 pM.
For the compound `CC(C)(C)CN(CC(=O)c1c[nH]c2cccc(Cl)c12)C(=O)c1cnn([C@H]2CC[C@](C)(C(=O)O)CC2)c1C(F)(F)F` [Example 352, trans-4-(4-((2-(4-chloro-1H-indol-3-yl)-2-oxoethyl)-(2,2-dimethylpropyl)carbamoyl)-5-(trifluoromethyl)pyrazol-1-yl)-1-methylcyclohexane-1-carboxylic acid], the IC50 is 4.07e+06 pM.
`C[C@]1(C(=O)O)CC[C@H](n2ncc(C(=O)N(CCN3CCCC(F)C3)CC(=O)c3c(Cl)cc(F)cc3Cl)c2C(F)(F)F)CC1` (stereo partly drawn) [Example 353, trans-4-(4-((2-(2,6-dichloro-4-fluorophenyl)-2-oxoethyl)-(2-(3-fluoropiperidin-1-yl)ethyl)carbamoyl)-5-(trifluoromethyl)pyrazol-1-yl)-1-methylcyclohexane-1-carboxylic acid]: the IC50 was 178000 pM.
For `CC1(C)[C@@H]2C[C@H](N(C[C@H](O)c3c(F)cccc3Cl)C(=O)c3cnn([C@H]4CC[C@](C)(C(=O)O)CC4)c3C(F)(F)F)C[C@@H]21` [Example 354, trans-4-(4-((2-(2-chloro-6-fluorophenyl)-2-hydroxyethyl)((1R,3r,5S)-6,6-dimethylbicyclo[3.1.0]hexan-3-yl)carbamoyl)-5-(trifluoromethyl)-1H-pyrazol-1-yl)-1-methylcyclohexanecarboxylic acid] the value was 513000 pM.
Then `CC1(C)[C@@H]2C[C@H](N(C[C@@H](O)c3c(F)cccc3Cl)C(=O)c3cnn([C@H]4CC[C@](C)(C(=O)O)CC4)c3C(F)(F)F)C[C@@H]21` [Example 355, trans-4-(4-((2-(2-chloro-6-fluorophenyl)-2-hydroxyethyl)((1R,3r,5S)-6,6-dimethylbicyclo[3.1.0]hexan-3-yl)carbamoyl)-5-(trifluoromethyl)-1H-pyrazol-1-yl)-1-methylcyclohexanecarboxylic acid], with 21900 pM; and `COc1cccc(Cl)c1[C@@H](O)CN(CC(C)(C)C)C(=O)c1cnn([C@H]2CC[C@](C)(C(=O)O)CC2)c1C(F)(F)F` [Example 356, trans-4-(4-(((2R)-2-(2-chloro-6-methoxyphenyl)-2-hydroxyethyl)-(2,2-dimethylpropyl)carbamoyl)-5-(trifluoromethyl)pyrazol-1-yl)-1-methylcyclohexane-1-carboxylic acid], with 102000 pM.
`COc1cccc(Cl)c1[C@H](O)CN(CC(C)(C)C)C(=O)c1cnn([C@H]2CC[C@](C)(C(=O)O)CC2)c1C(F)(F)F` [Example 357, trans-4-(4-(((2S)-2-(2-chloro-6-methoxyphenyl)-2-hydroxyethyl)-(2,2-dimethylpropyl)carbamoyl)-5-(trifluoromethyl)pyrazol-1-yl)-1-methylcyclohexane-1-carboxylic acid]: the IC50 was at least 1e+07 pM.
For `CC(C)(C)CN(CC(=O)c1c(Cl)cccc1Cl)C(=O)c1cnn([C@H]2CC[C@](C)(C(=O)O)CC2)c1Cl` [Example 358, trans-4-(5-chloro-4-((2-(2,6-dichlorophenyl)-2-oxoethyl)-(2,2-dimethylpropyl)carbamoyl)pyrazol-1-yl)-1-methylcyclohexane-1-carboxylic acid] the value was 61700 pM; for `Cc1cc(Cl)c(C(=O)CN(CC(C)(C)C)C(=O)c2cnn([C@H]3CC[C@](C)(C(=O)O)CC3)c2Cl)c(Cl)c1` [Example 359, trans-4-(5-chloro-4-((2-(2,6-dichloro-4-methylphenyl)-2-oxoethyl)-(2,2-dimethylpropyl)carbarnoyl)pyrazol-1-yl)-1-methylcyclohexane-1-carboxylic acid], 26300 pM.
For `Cc1[nH]c2cccc(Cl)c2c1CCN(CC(C)(C)C)C(=O)c1cnn([C@H]2CC[C@](C)(C(=O)O)CC2)c1C(F)(F)F` [Example 360, trans-4-(4-(2-(4-chloro-2-methyl-1H-indol-3-yl)ethyl-(2,2-dimethylpropyl)carbamoyl)-5-(trifluoromethyl)pyrazol-1-yl)-1-methylcyclohexane-1-carboxylic acid] the value was 178000 pM; for `CC1(C)[C@@H]2C[C@H](N(CC(=O)c3c(Cl)cccc3Cl)C(=O)c3cnn([C@H]4CC[C@](C)(C(=O)O)CC4)c3Cl)C[C@@H]21` [Example 363, trans-4-(5-chloro-4-((2-(2,6-dichlorophenyl)-2-oxoethyl)((1R,3r,5S)-6,6-dimethylbicyclo[3.1.0]hexan-3-yl)carbamoyl)-1H-pyrazol-yl)-1-methylcyclohexanecarboxylic acid], 13200 pM.
For `Cc1c(C(=O)N(CC(=O)c2c(Cl)cccc2Cl)[C@H]2C[C@@H]3[C@H](C2)C3(C)C)cnn1[C@H]1CC[C@](C)(C(=O)O)CC1` [Example 364, trans-4-(4-((2-(2,6-dichlorophenyl)-2-oxoethyl)((1R,3r,5S)-6,6-dimethylbicyclo[3.1.0]hexan-3-yl)carbamoyl)-5-methyl-1H-pyrazol-1-yl)-1-methylcyclohexanecarboxylic acid] the value was 45700 pM.
